Results as given in patent US12077503B2, “Substituted cyclic amides and their use as herbicides” (FMC CORPORATION, priority 2015, dated 2024).
Read-outs that look alike come from different tables or passages of the source.

Experiments:
Assay in all cases: Test A preemergence
Format in all cases: in vivo
[1] = tested on: Kochia (Kochia scoparia); settings: Bassia scoparia, pre-emergence, 240 h; for pest or weed control at 125 g/ha: 125 g ai/ha; for pest or weed control at 500 g/ha: 500 g ai/ha
How it was run: (§1)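 Seeds sprayed preemergence with a directed soil spray, or plants at 2 to 10 cm height and one- to two-leaf stage sprayed postemergence, with test chemicals in a non-phytotoxic solvent mixture containing surfactant, in loam soil–sand blend. Injury rated visually against untreated controls after about 10 d in greenhouse, 0 (no effect) to 100 (complete control).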

[2] = tested on: barnyardgrass (Echinochloa crus-galli); settings: Echinochloa crus-galli, pre-emergence, 240 h; for pest or weed control at 125 g/ha: 125 g ai/ha; for pest or weed control at 500 g/ha: 500 g ai/ha
How it was run: as §1

[3] = tested on: giant foxtail (Setaria faberii); settings: Setaria faberi, pre-emergence, 240 h; for pest or weed control at 125 g/ha: 125 g ai/ha; for pest or weed control at 500 g/ha: 500 g ai/ha
How it was run: as §1

[4] = tested on: pigweed (Amaranthus retroflexus); settings: Amaranthus retroflexus, pre-emergence, 240 h; for pest or weed control at 125 g/ha: 125 g ai/ha; for pest or weed control at 500 g/ha: 500 g ai/ha
[5] = tested on: ragweed (common ragweed, Ambrosia elatior); settings: Ambrosia artemisiifolia, pre-emergence, 240 h; for pest or weed control at 125 g/ha: 125 g ai/ha; for pest or weed control at 500 g/ha: 500 g ai/ha
How it was run: as §1

[6] = tested on: ryegrass, Italian (Italian ryegrass, Lolium multiflorum); settings: Lolium multiflorum, pre-emergence, 240 h; for pest or weed control at 125 g/ha: 125 g ai/ha; for pest or weed control at 500 g/ha: 500 g ai/ha
How it was run: as §1

[7] = preemergence, visual rating after approx. 10 d, 0 to 100 scale where 0 is no effect and 100 is complete control, read-out: Plant response rating, Kochia
[8] = preemergence, visual rating after approx. 10 d, 0 to 100 scale where 0 is no effect and 100 is complete control, read-out: Plant response rating, Barnyardgrass
[9] = preemergence, visual rating after approx. 10 d, 0 to 100 scale where 0 is no effect and 100 is complete control, read-out: Plant response rating, Foxtail, Giant
[10] = preemergence, visual rating after approx. 10 d, 0 to 100 scale where 0 is no effect and 100 is complete control, read-out: Plant response rating, Pigweed
[11] = preemergence, visual rating after approx. 10 d, 0 to 100 scale where 0 is no effect and 100 is complete control, read-out: Plant response rating, Ragweed
[12] = preemergence, visual rating after approx. 10 d, 0 to 100 scale where 0 is no effect and 100 is complete control, read-out: Plant response rating, Ryegrass, Italian
[13] = preemergence, 0 to 100 scale where 0 is no effect and 100 is complete control, read-out: Kochia plant response rating
[14] = Preemergence, 0 to 100 scale (0 no effect, 100 complete control), read-out: Plant response rating, Kochia
[15] = preemergence, 0 to 100 scale where 0 is no effect and 100 is complete control, read-out: Barnyardgrass plant response rating
[16] = Preemergence, 0 to 100 scale (0 no effect, 100 complete control), read-out: Plant response rating, Barnyardgrass
[17] = preemergence, 0 to 100 scale where 0 is no effect and 100 is complete control, read-out: Foxtail, Giant plant response rating
[18] = Preemergence, 0 to 100 scale (0 no effect, 100 complete control), read-out: Plant response rating, Foxtail, Giant
[19] = preemergence, 0 to 100 scale where 0 is no effect and 100 is complete control, read-out: Pigweed plant response rating
[20] = Preemergence, 0 to 100 scale (0 no effect, 100 complete control), read-out: Plant response rating, Pigweed
[21] = preemergence, 0 to 100 scale where 0 is no effect and 100 is complete control, read-out: Ragweed plant response rating
[22] = Preemergence, 0 to 100 scale (0 no effect, 100 complete control), read-out: Plant response rating, Ragweed
[23] = Preemergence, 0 to 100 scale (0 no effect, 100 complete control), read-out: Plant response rating, Ryegrass, Italian
[24] = preemergence, 0 to 100 scale, 0 = no effect, 100 = complete control, read-out: Plant response rating, Kochia
[25] = preemergence, 0 to 100 scale, 0 = no effect, 100 = complete control, read-out: Plant response rating, Barnyardgrass
[26] = preemergence, 0 to 100 scale, 0 = no effect, 100 = complete control, read-out: Plant response rating, Foxtail, Giant
[27] = preemergence, 0 to 100 scale, 0 = no effect, 100 = complete control, read-out: Plant response rating, Pigweed
[28] = preemergence, 0 to 100 scale, 0 = no effect, 100 = complete control, read-out: Plant response rating, Ragweed
[29] = preemergence, 0 to 100 scale, 0 = no effect, 100 = complete control, read-out: Plant response rating, Ryegrass, Italian
[30] = preemergence, visual injury rating, 0 to 100 scale where 0 is no effect and 100 is complete control, approximately 10 d, read-out: Kochia plant response rating
[31] = preemergence, visual injury rating, 0 to 100 scale where 0 is no effect and 100 is complete control, approximately 10 d, read-out: Barnyardgrass plant response rating
[32] = preemergence, visual injury rating, 0 to 100 scale where 0 is no effect and 100 is complete control, approximately 10 d, read-out: Foxtail, Giant plant response rating
[33] = preemergence, visual injury rating, 0 to 100 scale where 0 is no effect and 100 is complete control, approximately 10 d, read-out: Pigweed plant response rating
[34] = preemergence, visual injury rating, 0 to 100 scale where 0 is no effect and 100 is complete control, approximately 10 d, read-out: Ryegrass, Italian plant response rating
[35] = preemergence, 0 to 100 scale where 0 is no effect and 100 is complete control, read-out: Ryegrass, Italian plant response rating

For `CSc1ccccc1NC(=O)[C@H]1C(=O)N(C)C[C@@H]1c1cc(C)c(C)c(C)c1` [Compound 798], the pest or weed control at 125 g/ha [1, 7] was 20%, the pest or weed control at 31 g/ha ([1]; Preemergence, 31 g ai/ha, 0 to 100 scale (0 no effect, 100 complete control), read-out: Plant response rating, Kochia) was 0% and the pest or weed control at 125 g/ha [2, 8] was 80%. For the same compound, the pest or weed control at 31 g/ha ([2]; Preemergence, 31 g ai/ha, 0 to 100 scale (0 no effect, 100 complete control), read-out: Plant response rating, Barnyardgrass) was 20%, the pest or weed control at 125 g/ha [3, 9] was 90% and the pest or weed control at 31 g/ha ([3]; Preemergence, 31 g ai/ha, 0 to 100 scale (0 no effect, 100 complete control), read-out: Plant response rating, Foxtail, Giant) was 70%. The pest or weed control at 125 g/ha [4, 10] was 40%, the pest or weed control at 31 g/ha ([4]; Preemergence, 31 g ai/ha, 0 to 100 scale (0 no effect, 100 complete control), read-out: Plant response rating, Pigweed) was 30% and the pest or weed control at 125 g/ha [5, 11] was 0%. For the same compound, the pest or weed control at 31 g/ha ([5]; Preemergence, 31 g ai/ha, 0 to 100 scale (0 no effect, 100 complete control), read-out: Plant response rating, Ragweed) was 0%, the pest or weed control at 125 g/ha [6, 12] was 0% and the pest or weed control at 31 g/ha ([6]; Preemergence, 31 g ai/ha, 0 to 100 scale (0 no effect, 100 complete control), read-out: Plant response rating, Ryegrass, Italian) was 0%.

Compound `CN1C[C@H](c2cccc(C(C)(F)F)c2)[C@@H](C(=O)Nc2ccccc2F)C1=O` [Compound 1317] has a pest or weed control at 500 g/ha [1, 13] of 80%, a pest or weed control at 125 g/ha [1, 14] of 60% and a pest or weed control at 500 g/ha [2, 15] of 90%. The pest or weed control at 125 g/ha [2, 16] was 90%, the pest or weed control at 500 g/ha [3, 17] was 100% and the pest or weed control at 125 g/ha [3, 18] was 90%. It also gave a pest or weed control at 500 g/ha [4, 19] of 60%, a pest or weed control at 125 g/ha [4, 20] of 0% and a pest or weed control at 500 g/ha [5, 21] of 40%. For the same compound, the pest or weed control at 125 g/ha [5, 22] was 0% and the pest or weed control at 125 g/ha [6, 23] was 20%.

Work on `Cc1cc([C@H]2CNC(=O)[C@@H]2C(=O)Nc2ccccc2F)ccc1F` [Compound 717] yielded a pest or weed control at 125 g/ha [1, 7] of 0%, a pest or weed control at 500 g/ha [1, 24] of 60% and a pest or weed control at 125 g/ha [2, 8] of 90%. It also gave a pest or weed control at 500 g/ha [2, 25] of 90%, a pest or weed control at 125 g/ha [3, 9] of 80% and a pest or weed control at 500 g/ha [3, 26] of 90%. For the same compound, the pest or weed control at 125 g/ha [4, 10] was 0%, the pest or weed control at 500 g/ha [4, 27] was 30% and the pest or weed control at 125 g/ha [5, 11] was 0%. For the same compound, the pest or weed control at 500 g/ha [5, 28] was 40%, the pest or weed control at 125 g/ha [6, 12] was 0% and the pest or weed control at 500 g/ha [6, 29] was 30%.

`Cc1c(F)cccc1NC(=O)[C@H]1C(=O)N(C)C[C@@H]1c1ccc2c(c1)OC(F)(F)O2` [Compound 1252] was tested, and the pest or weed control at 125 g/ha [1, 30] was 80%, the pest or weed control at 500 g/ha [1, 13] was 80% and the pest or weed control at 125 g/ha [2, 31] was 100%. For the same compound, the pest or weed control at 500 g/ha [2, 15] was 100%, the pest or weed control at 125 g/ha [3, 32] was 90% and the pest or weed control at 500 g/ha [3, 17] was 100%. The pest or weed control at 125 g/ha [4, 33] was 70%, the pest or weed control at 500 g/ha [4, 19] was 90% and the pest or weed control at 125 g/ha ([5]; preemergence, visual injury rating, 0 to 100 scale where 0 is no effect and 100 is complete control, approximately 10 d, read-out: Ragweed plant response rating) was 60%. The pest or weed control at 500 g/ha [5, 21] was 70%, the pest or weed control at 125 g/ha [6, 34] was 80% and the pest or weed control at 500 g/ha [6, 35] was 90%.

`Cc1cc([C@H]2CNC(=O)[C@@H]2C(=O)Nc2ccccc2C(F)(F)F)ccc1Cl` [Compound 1245] showed a pest or weed control at 125 g/ha [1, 30] of 0%, a pest or weed control at 500 g/ha [1, 13] of 20% and a pest or weed control at 125 g/ha [2, 31] of 50%. The pest or weed control at 500 g/ha [2, 15] was 80%, the pest or weed control at 125 g/ha [3, 32] was 80% and the pest or weed control at 500 g/ha [3, 17] was 90%. For the same compound, the pest or weed control at 125 g/ha [4, 33] was 0%, the pest or weed control at 500 g/ha [4, 19] was 0% and the pest or weed control at 500 g/ha [5, 21] was 20%. The pest or weed control at 125 g/ha [6, 34] was 0% and the pest or weed control at 500 g/ha [6, 35] was 60%.

For `C=CCN1C[C@H](c2ccc(OC)c(F)c2)[C@@H](C(=O)Nc2cccc(F)c2F)C1=O` [Compound 722], the pest or weed control at 125 g/ha [1, 7] was 0%, the pest or weed control at 500 g/ha [1, 24] was 0% and the pest or weed control at 125 g/ha [2, 8] was 20%. For the same compound, the pest or weed control at 500 g/ha [2, 25] was 80%, the pest or weed control at 125 g/ha [3, 9] was 50% and the pest or weed control at 500 g/ha [3, 26] was 80%. For the same compound, the pest or weed control at 125 g/ha [4, 10] was 0%, the pest or weed control at 500 g/ha [4, 27] was 0% and the pest or weed control at 125 g/ha [5, 11] was 0%. For the same compound, the pest or weed control at 500 g/ha [5, 28] was 0%, the pest or weed control at 125 g/ha [6, 12] was 0% and the pest or weed control at 500 g/ha [6, 29] was 0%.

For `CN1C[C@H](c2ccc(OC(F)F)cc2)[C@@H](C(=O)Nc2ccccc2F)C1=O` [Compound 1371], the pest or weed control at 500 g/ha ([1]; preemergence, 0 to 100 scale (0 no effect, 100 complete control), read-out: Plant response rating, Kochia) was 90%, the pest or weed control at 125 g/ha [1, 14] was 80% and the pest or weed control at 500 g/ha ([2]; preemergence, 0 to 100 scale (0 no effect, 100 complete control), read-out: Plant response rating, Barnyardgrass) was 100%. For the same compound, the pest or weed control at 125 g/ha [2, 16] was 90%, the pest or weed control at 500 g/ha ([3]; preemergence, 0 to 100 scale (0 no effect, 100 complete control), read-out: Plant response rating, Foxtail, Giant) was 90% and the pest or weed control at 125 g/ha [3, 18] was 90%. It also gave a pest or weed control at 500 g/ha ([4]; preemergence, 0 to 100 scale (0 no effect, 100 complete control), read-out: Plant response rating, Pigweed) of 90%, a pest or weed control at 125 g/ha [4, 20] of 70% and a pest or weed control at 500 g/ha ([5]; preemergence, 0 to 100 scale (0 no effect, 100 complete control), read-out: Plant response rating, Ragweed) of 80%. It also gave a pest or weed control at 125 g/ha [5, 22] of 70%, a pest or weed control at 500 g/ha ([6]; preemergence, 0 to 100 scale (0 no effect, 100 complete control), read-out: Plant response rating, Ryegrass, Italian) of 50% and a pest or weed control at 125 g/ha [6, 23] of 0%.
